Blank lines part the entries; values can stand above or below the compound they belong to.
Assay: solvent given as SMILES

SMILES: O=c1[nH]c2ccccc2[nH]1
absorption maximum (in C1CCOC1): 291 nm
absorption maximum (in CC#N): 281 nm
absorption maximum (in CC(C)=O): 285 nm
absorption maximum (in CCCCCCC): 292 nm
absorption maximum (in CCCCCl): 287 nm
absorption maximum (in CCCCO): 280 nm
absorption maximum (in CCCO): 280 nm
absorption maximum (in CCCOCCC): 280 nm
absorption maximum (in CCO): 280 nm

SMILES: CC1=[N+]2C(=C(c3ccc(C#N)cc3)c3ccc(C)n3[B-]2(F)F)C=C1
absorption maximum (in C1CCCCC1): 517 nm
absorption maximum (in C1CCOC1): 516 nm
absorption maximum (in CC#N): 512 nm
absorption maximum (in CCOC(C)=O): 513 nm
absorption maximum (in CO): 513 nm
absorption maximum (in Cc1ccccc1): 519 nm
absorption maximum (in ClC(Cl)Cl): 519 nm

SMILES: Cc1ccc2ccccc2c1
absorption maximum (in C1CCCCC1): 303.77 nm

absorption maximum (in O): 507 nm
SMILES: COc1cc(N2CCOCCOCCN(c3cc(OC)c(NC(=O)c4ccc(-c5c6cc(Cl)c(=O)cc-6oc6cc([O-])c(Cl)cc56)c(C(=O)[O-])c4)cc3OC)CCOCC2)c(OC)cc1NC(=O)c1ccc(-c2c3cc(Cl)c(=O)cc-3oc3cc([O-])c(Cl)cc23)c(C(=O)[O-])c1

SMILES: Cc1ccc(N(c2ccc(C)cc2)c2ccc3c4cccc5c(N(c6ccc(C)cc6)c6ccc(C)cc6)ccc(c6cccc2c63)c54)cc1
absorption maximum (in C1CCCCC1): 506 nm
absorption maximum (in C1CCOC1): 502 nm
absorption maximum (in CC#N): 496 nm
absorption maximum (in Cc1ccccc1): 507 nm
absorption maximum (in ClCCl): 473 nm

SMILES: c1ccc2c(c1)Sc1ccccc1N2c1ccc2c(c1)C1(CCCC1)c1cc(N3c4ccccc4Sc4ccccc43)ccc1-2
absorption maximum (in Cc1ccccc1): 308 nm

absorption maximum (in ClCCl): 335 nm
SMILES: CC(C)(C)NC(=O)c1cccc2ccc3c4cc(Cl)ccc4c4ccc(Cl)cc4c3c12

absorption maximum (in ClCCl): 538 nm
SMILES: CC1=C(c2ccc(N(C)C)cc2)C(C)=[N+]2C1=C(c1c(-c3ccccn3)nc3ccccn13)c1c(C)cc(C)n1[B-]2(F)F

absorption maximum (in ClC(Cl)Cl): 647 nm
SMILES: Cc1cc(C)c(C2=C3C=CC=[N+]3[B-]3(c4ccc5ccc6cccc7ccc4c5c67)Oc4cc(O)cc5c6ccc(C)cc6c6cc2n3c6c45)c(C)c1 (configuration not stated)

absorption maximum (in CCO): 457 nm
SMILES: CN1c2cc3nc4cc(F)c(F)cc4nc3cc2N(C)C1(C)C

absorption maximum (in C1CCCCC1): 405 nm
absorption maximum (in C1CCOC1): 419 nm
absorption maximum (in CC#N): 422 nm
absorption maximum (in CO): 435 nm
absorption maximum (in CS(C)=O): 434 nm
absorption maximum (in ClCCl): 428 nm
absorption maximum (in O): 446 nm
SMILES: CC1=N/C(=C\c2ccc(N(C)C)cc2)C(=O)N1C

absorption maximum (in C1CCCCC1): 331 nm
SMILES: CCC(C)(C)c1ccc2c(c1)C(CCOC)(CCOC)c1cc(-c3ccc4c(c3)C(CCOC)(CCOC)c3cc(C(C)(C)CC)ccc3-4)ccc1-2

absorption maximum (in ClC(Cl)Cl): 376 nm
SMILES: CN(C)c1ccc(-c2cc(-c3ccc(C#N)cc3)nc(-c3ccccc3)n2)cc1

absorption maximum (in ClC(Cl)Cl): 634 nm
SMILES: F[B-]1(F)n2c(cc3c2-c2ccccc2CC3)C(c2ccc(I)cc2)=C2C=C3CCc4ccccc4C3=[N+]21

absorption maximum (in ClCCl): 427 nm
absorption maximum (in O): 416 nm
SMILES: N#CC(C#N)=Cc1ccc(-c2ccc(O)c(-c3nc4ccccc4s3)c2)s1

absorption maximum (in ClCCl): 404 nm
SMILES: CC(C)[Si](C#Cc1cc2c3c(c1)c(=C(c1ccccc1)c1ccccc1)c1cc(C#C[Si](C(C)C)(C(C)C)C(C)C)cc4c1N3c1c(cc(C#C[Si](C(C)C)(C(C)C)C(C)C)cc1c4=C(c1ccccc1)c1ccccc1)c2=C(c1ccccc1)c1ccccc1)(C(C)C)C(C)C

absorption maximum (in CC#N): 427 nm
SMILES: c1cc2c3c(cccc3c1)C(N1CCOCCOCCOCCOCC1)=N2

absorption maximum (in C1CCOC1): 354 nm
SMILES: c1ccc2c(c1)Cc1c-2sc2c1Cc1ccccc1-2

absorption maximum (in C1CCOC1): 356 nm
absorption maximum (in CC#N): 355 nm
absorption maximum (in CCCCCC): 352 nm
SMILES: CC(O)CC1=N/C(=C\c2cccc(N(C)C)c2)C(=O)N1C (configuration not stated)

absorption maximum (in CCCCCC): 486 nm
SMILES: CC(C)[Si](C#Cc1c2ccccc2c(C#C[Si](C(C)C)(C(C)C)C(C)C)c2nc3c(nc12)Cc1ccccc1-3)(C(C)C)C(C)C

SMILES: CCn1c2ccccc2c2cc(-c3cc(-c4ccc5c(c4)c4ccccc4n5CC)nc(-c4ccccc4)n3)ccc21
absorption maximum (in C1CCOC1): 364 nm
absorption maximum (in CCOC(C)=O): 360 nm
absorption maximum (in CN(C)C=O): 367 nm
absorption maximum (in Cc1ccccc1): 363 nm
absorption maximum (in ClCCl): 363 nm

From the Deep4Chem optical property database
